Reference: PubChem BioAssay AID720726 (Broad Institute, 2013)
The source made the active and inactive calls.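 Rule for the calls: active = fitted dose curve rising to 40 percent activity within the top usable dose; inconclusive = flat curve between 30 and 70 percent, or poor fit; inactive = the rest, including signal moving the wrong way.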

What was measured:
[1] = activators raising endogenous miR-122 levels, dose response, orthogonal assay, cell-based, Huh7, qRT-PCR, dry powder (AID 720726); settings: Huh7 miR-122 levels, qRT-PCR, 48 h
[2] = tested on: Huh7 miR-122 levels, qRT-PCR, 48 h; assay: as above

SMILES	miR-122 fold change ([1]; at 35 µM (top of the series))	further results
O=C(c1ccc(CN2CCOCC2)cc1)N1CCc2ccccc21	1 fold change (inactive)	
CCCCN(CCCC)C(=O)CN(C)S(=O)(=O)c1ccc2c(c1)n(C)c(=O)c(=O)n2C	0.906 fold change (inactive)	
CN(C)CCCOc1nn(Cc2ccccc2)c2ccccc12	1.5 fold change (inactive)	
C/C=C/c1cnc2c(c1)C(=O)N([C@@H](C)CO)C[C@H](C)[C@H](CN(C)S(=O)(=O)c1ccc(OC)cc1)O2	1.05 fold change (inactive)	
CN1C(=O)c2cc(NC(=O)c3cccc(F)c3)ccc2OC[C@H]2O[C@H](CC(=O)O)CC[C@H]21	0.909 fold change (inactive)	
O=C(CNCCC1=CCCCC1)Nc1ccccc1N1CCCCCC1	0.489 fold change (inactive)	
C[C@H]1CN([C@@H](C)CO)C(=O)c2cc(-c3ccc(C#N)cc3)cnc2O[C@H]1CN(C)C(=O)c1ccccc1	1.14 fold change (inactive)	
COCC(=O)N(C)C[C@@H]1Oc2ncc(-c3ccc(C#N)cc3)cc2C(=O)N([C@@H](C)CO)C[C@@H]1C	1.01 fold change (inactive)	
C[C@H](CO)N1C[C@H](C)[C@H](CN(C)C(=O)C2CCOCC2)Oc2cc(C#Cc3ccncc3)ccc2S1(=O)=O	0.417 fold change (inactive)	
CCOC(=O)N1CCC(NC(=O)c2ccc3nc(N4CCC(C)CC4)sc3c2)CC1	1 fold change (inactive)	
CCOC(=O)N1CCC(NC(=O)c2ccc3c(c2)sc2nc(-c4ccccc4)cn23)CC1	0.356 fold change (inactive)	
CN1C(=O)c2cc(NC(=O)c3cccc(F)c3)ccc2OC[C@@H]2O[C@@H](CC(=O)O)CC[C@H]21		miR-122 fold change ([1]; at 30 µM (top of the series)): 0.927 fold change (inactive)
CN(CC(=O)Nc1cccc(Cl)c1)S(=O)(=O)c1ccc2c(c1)n(C)c(=O)c(=O)n2C	1.27 fold change (inactive)	
CN1C(=O)c2cc(NC(=O)c3cccc(F)c3)ccc2OC[C@@H]2O[C@H](CC(=O)O)CC[C@H]21	0.958 fold change (inactive)	
CCN(CC)C(=O)c1cccc(NC(=O)c2ccc(Cl)cc2Cl)c1	0.931 fold change (inactive)	
O=C(CN=C1NS(=O)(=O)c2ccccc21)Nc1ccccc1N1CCCCCC1	1.09 fold change (inactive)	

SMILES	miR-122 fold change ([1]; at 35 µM (top of the series))	further results
C[C@@H]1CN([C@H](C)CO)S(=O)(=O)c2ccc(C#Cc3ccncc3)cc2O[C@H]1CN(C)C(=O)C1CCOCC1	0.486 fold change (inactive)	
COCC(=O)N(C)C[C@H]1Oc2cc(C#Cc3cccnc3)ccc2S(=O)(=O)N([C@@H](C)CO)C[C@H]1C	0.983 fold change (inactive)	
CO[C@@H]1CN(C)C(=O)c2cc(NC(=O)c3cccc(Oc4ccccc4)c3)ccc2OC[C@H](C)NC[C@@H]1C	0.113 fold change (inactive)	
Nc1ccc(Oc2ccc(Cl)cc2)cc1	0.496 fold change (inactive)	
COc1cccc(-c2ccc3c(c2)O[C@H](CN(C)C(=O)C2CCOCC2)[C@H](C)CN([C@@H](C)CO)S3(=O)=O)c1	0.896 fold change (inactive)	
Nc1ccc(Oc2ccc(Br)cc2)cc1	0.505 fold change (inactive)	
O=S(=O)(NCCc1ccncc1)c1ccccc1	1.01 fold change (inactive)	
C[C@H]1CN([C@@H](C)CO)C(=O)c2cc(C#Cc3ccccc3F)cnc2O[C@@H]1CN(C)C(=O)C1CCCCC1	0.164 fold change (inactive)	
CN1C(=O)c2cc(NC(=O)c3cccc(F)c3)ccc2OC[C@H]2O[C@H](CC(=O)O)CC[C@@H]21	0.869 fold change (inactive)	
COc1ccc(S(=O)(=O)N(C)C[C@@H]2Oc3ncc(/C=C/c4ccccc4)cc3C(=O)N([C@@H](C)CO)C[C@@H]2C)cc1	0.9 fold change (inactive)	
CCCC#Cc1ccc2c(c1)O[C@H](CN(C)C(=O)COC)[C@H](C)CN([C@@H](C)CO)S2(=O)=O		AC40 [2]: 23.9 µM
O=C(Nc1ccc(-c2nc3ccccc3o2)cc1)c1cc(-n2cnnc2)ccc1Cl	0.17 fold change (inactive)	
Cc1cc(C(C)(C)C)cc(S(=O)(=O)NCCc2ccncc2)c1C	1.04 fold change (inactive)	
C[C@H]1CN([C@@H](C)CO)C(=O)c2cc(C#Cc3ccccc3F)cnc2O[C@H]1CN(C)C(=O)C1CCCCC1	0.569 fold change (inactive)	
O=C(NCc1ccccc1Cl)c1ccc(CNc2c(NC3CCCCC3)c(=O)c2=O)cc1	0.171 fold change (inactive)	
CNC[C@@H]1Oc2cc(C#CC3CCCCC3)ccc2S(=O)(=O)N([C@@H](C)CO)C[C@@H]1C	1.07 fold change (inactive)	
